Experimental data: PubChem BioAssay (NCI)
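Grown in 96-well plates, cells were treated for 48 hours with each compound at five concentrations. Insufficient inhibition: endpoint recorded as highest concentration tested. At the GI50, growth is halved. TGI: total growth inhibition.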

Key:
Experiment in all cases: NCI anticancer screen, dose series, 48 h; in the data active = GI50 below about 0.43 µM; inactive = the rest
OVCAR-3 ovarian = tested on: OVCAR-3 ovarian
SK-MEL-2 melanoma = tested on: SK-MEL-2 melanoma
DU-145 prostate = tested on: DU-145 prostate
BT-549 breast = tested on: BT-549 breast
MALME-3M melanoma = tested on: MALME-3M melanoma
COLO 205 colon = tested on: COLO 205 colon
SF-539 CNS = tested on: SF-539 CNS
UACC-62 melanoma = tested on: UACC-62 melanoma
U251 CNS = tested on: U251 CNS
A498 renal = tested on: A498 renal
OVCAR-5 ovarian = tested on: OVCAR-5 ovarian
OVCAR-4 ovarian = tested on: OVCAR-4 ovarian
786-0 renal = tested on: 786-0 renal
NCI-H23 lung = tested on: NCI-H23 lung
K-562 leukemia = tested on: K-562 leukemia
NCI-H460 lung = tested on: NCI-H460 lung
MDA-MB-231 breast = tested on: MDA-MB-231 breast
SK-MEL-5 melanoma = tested on: SK-MEL-5 melanoma
LOX IMVI melanoma = tested on: LOX IMVI melanoma
CCRF-CEM leukemia = tested on: CCRF-CEM leukemia
SK-OV-3 ovarian = tested on: SK-OV-3 ovarian
SN12C renal = tested on: SN12C renal
NCI/ADR-RES ovarian = tested on: NCI/ADR-RES ovarian
SNB-75 CNS = tested on: SNB-75 CNS
HS 578T breast = tested on: HS 578T breast
MOLT-4 leukemia = tested on: MOLT-4 leukemia
RXF 393 renal = tested on: RXF 393 renal
UACC-257 melanoma = tested on: UACC-257 melanoma
OVCAR-8 ovarian = tested on: OVCAR-8 ovarian
SF-268 CNS = tested on: SF-268 CNS
HCT-116 colon = tested on: HCT-116 colon
SNB-19 CNS = tested on: SNB-19 CNS
A549 NSCLC = tested on: A549 NSCLC
KM12 colon = tested on: KM12 colon
ACHN renal = tested on: ACHN renal
T-47D breast = tested on: T-47D breast
SF-295 CNS = tested on: SF-295 CNS
SK-MEL-28 melanoma = tested on: SK-MEL-28 melanoma
RPMI-8226 leukemia = tested on: RPMI-8226 leukemia
HT29 colon = tested on: HT29 colon
MDA-MB-435 = tested on: MDA-MB-435
IGROV1 ovarian = tested on: IGROV1 ovarian
HOP-92 NSCLC = tested on: HOP-92 NSCLC
EKVX NSCLC = tested on: EKVX NSCLC
UO-31 renal = tested on: UO-31 renal
SR leukemia = tested on: SR leukemia
MCF7 breast = tested on: MCF7 breast
HOP-62 NSCLC = tested on: HOP-62 NSCLC
HCC-2998 colon = tested on: HCC-2998 colon
NCI-H522 lung = tested on: NCI-H522 lung
HCT-15 colon = tested on: HCT-15 colon
CAKI-1 renal = tested on: CAKI-1 renal
SW-620 colon = tested on: SW-620 colon
PC-3 prostate = tested on: PC-3 prostate
NCI-H226 lung = tested on: NCI-H226 lung
TK-10 renal = tested on: TK-10 renal
M14 melanoma = tested on: M14 melanoma
HL-60(TB) leukemia = tested on: HL-60(TB) leukemia

Fc1ccc(Nc2ccc3cc(OCCCN4CCOCC4)ccc3n2)cc1F
7.64 µM: TGI (A498 renal)
9.2 µM: TGI (HS 578T breast)
4.4 µM: TGI (SW-620 colon)
30.7 µM: TGI (ACHN renal)
18.7 µM: TGI (SF-539 CNS)
7.9 µM: TGI (HOP-92 NSCLC)
32.8 µM: TGI (SR leukemia)
50 µM: TGI (PC-3 prostate)
7.79 µM: TGI (U251 CNS)
27 µM: TGI (MCF7 breast)
7.74 µM: TGI (MALME-3M melanoma)
6.88 µM: TGI (UACC-257 melanoma)
inactive: GI50 (OVCAR-3 ovarian) 7.03 µM | GI50 (SK-MEL-2 melanoma) 4.84 µM | GI50 (DU-145 prostate) 6.85 µM | GI50 (BT-549 breast) 7.28 µM | GI50 (MALME-3M melanoma) 2.25 µM | GI50 (COLO 205 colon) 1.96 µM | GI50 (SF-539 CNS) 3.22 µM | GI50 (UACC-62 melanoma) 1.99 µM | GI50 (U251 CNS) 2.92 µM | GI50 (A498 renal) 2.21 µM | GI50 (OVCAR-5 ovarian) 3.02 µM | GI50 (OVCAR-4 ovarian) 4.14 µM | GI50 (786-0 renal) 2.15 µM | GI50 (NCI-H23 lung) 3.93 µM | GI50 (K-562 leukemia) 2.78 µM | GI50 (NCI-H460 lung) 2.93 µM | GI50 (MDA-MB-231 breast) 1.96 µM | GI50 (SK-MEL-5 melanoma) 1.75 µM | GI50 (LOX IMVI melanoma) 1.6 µM | GI50 (CCRF-CEM leukemia) 7.93 µM | GI50 (SK-OV-3 ovarian) 8.24 µM | GI50 (SN12C renal) 9.77 µM | GI50 (NCI/ADR-RES ovarian) 4.45 µM | GI50 (SNB-75 CNS) 2.44 µM | GI50 (HS 578T breast) 3.06 µM | GI50 (MOLT-4 leukemia) 3.45 µM | GI50 (RXF 393 renal) 2.45 µM | GI50 (UACC-257 melanoma) 2.77 µM | GI50 (OVCAR-8 ovarian) 5.51 µM | GI50 (SF-268 CNS) 6.55 µM | GI50 (HCT-116 colon) 4.5 µM | GI50 (SNB-19 CNS) 2.78 µM | GI50 (A549 NSCLC) 5.36 µM | GI50 (KM12 colon) 2.06 µM | GI50 (ACHN renal) 4.2 µM | GI50 (T-47D breast) 6.68 µM | GI50 (SF-295 CNS) 1.89 µM | GI50 (SK-MEL-28 melanoma) 1.87 µM | GI50 (RPMI-8226 leukemia) 6.96 µM | GI50 (HT29 colon) 2.06 µM | GI50 (MDA-MB-435) 3.26 µM | GI50 (IGROV1 ovarian) 10.9 µM | GI50 (HOP-92 NSCLC) 2.63 µM | GI50 (EKVX NSCLC) 5.86 µM | GI50 (UO-31 renal) 2.24 µM | GI50 (SR leukemia) 2.03 µM | GI50 (MCF7 breast) 3.11 µM | GI50 (HOP-62 NSCLC) 4.54 µM | GI50 (HCC-2998 colon) 2.22 µM | GI50 (NCI-H522 lung) 2.15 µM | GI50 (HCT-15 colon) 2.55 µM | GI50 (CAKI-1 renal) 3.71 µM | GI50 (SW-620 colon) 2.12 µM | GI50 (PC-3 prostate) 4.29 µM
8.74 µM: TGI (NCI-H460 lung)
4.68 µM: TGI (786-0 renal) | TGI (MDA-MB-231 breast)
4.94 µM: TGI (UACC-62 melanoma)
17.7 µM: TGI (SNB-75 CNS)
52.1 µM: TGI (BT-549 breast)
3.93 µM: TGI (SK-MEL-28 melanoma)
7.32 µM: TGI (RXF 393 renal)
33.5 µM: TGI (SK-MEL-2 melanoma)
5.37 µM: TGI (NCI-H522 lung)
3.09 µM: TGI (LOX IMVI melanoma)
25.6 µM: TGI (CAKI-1 renal)
3.84 µM: TGI (COLO 205 colon)
> 100 µM: TGI (OVCAR-3 ovarian) | TGI (DU-145 prostate) | TGI (OVCAR-5 ovarian) | TGI (OVCAR-4 ovarian) | TGI (NCI-H23 lung) | TGI (K-562 leukemia) | TGI (CCRF-CEM leukemia) | TGI (SK-OV-3 ovarian) | TGI (SN12C renal) | TGI (NCI/ADR-RES ovarian) | TGI (MOLT-4 leukemia) | TGI (OVCAR-8 ovarian) | TGI (SF-268 CNS) | TGI (HCT-116 colon) | TGI (A549 NSCLC) | TGI (T-47D breast) | TGI (RPMI-8226 leukemia) | TGI (IGROV1 ovarian) | TGI (EKVX NSCLC)
5.48 µM: TGI (KM12 colon)
4.42 µM: TGI (HCC-2998 colon)
6.84 µM: TGI (UO-31 renal)
4.3 µM: TGI (SF-295 CNS)
10.4 µM: TGI (HCT-15 colon)
68 µM: TGI (MDA-MB-435)
5.47 µM: TGI (HT29 colon)
45.9 µM: TGI (HOP-62 NSCLC)
3.49 µM: TGI (SK-MEL-5 melanoma)
7.99 µM: TGI (SNB-19 CNS)

Cc1cc(Nc2nc(N3CCOCC3)nc3ccccc23)n[nH]1
18.5 µM: TGI (ACHN renal)
21.6 µM: TGI (U251 CNS)
11.9 µM: TGI (COLO 205 colon)
active: GI50 (KM12 colon) 0.4 µM
56.8 µM: TGI (SW-620 colon)
28.1 µM: TGI (SR leukemia)
77.9 µM: TGI (MOLT-4 leukemia)
21.2 µM: TGI (LOX IMVI melanoma)
50.1 µM: TGI (HL-60(TB) leukemia)
27.1 µM: TGI (IGROV1 ovarian)
6.17 µM: TGI (RXF 393 renal)
> 100 µM: TGI (OVCAR-3 ovarian) | TGI (SK-MEL-2 melanoma) | TGI (DU-145 prostate) | TGI (MALME-3M melanoma) | TGI (OVCAR-5 ovarian) | TGI (OVCAR-4 ovarian) | TGI (K-562 leukemia) | TGI (NCI-H460 lung) | TGI (MDA-MB-231 breast) | TGI (SK-MEL-5 melanoma) | TGI (CCRF-CEM leukemia) | TGI (SN12C renal) | TGI (NCI/ADR-RES ovarian) | TGI (M14 melanoma) | TGI (UACC-257 melanoma) | TGI (OVCAR-8 ovarian) | TGI (SNB-19 CNS) | TGI (A549 NSCLC) | TGI (KM12 colon) | TGI (T-47D breast) | TGI (SK-MEL-28 melanoma) | TGI (RPMI-8226 leukemia) | TGI (MDA-MB-435) | TGI (MCF7 breast) | TGI (HOP-62 NSCLC) | TGI (HCC-2998 colon) | TGI (NCI-H522 lung) | TGI (HCT-15 colon)
16.6 µM: TGI (SF-539 CNS)
26.1 µM: TGI (786-0 renal)
inactive: GI50 (OVCAR-3 ovarian) 11.5 µM | GI50 (SK-MEL-2 melanoma) 5.2 µM | GI50 (DU-145 prostate) 13.3 µM | GI50 (BT-549 breast) 7.88 µM | GI50 (MALME-3M melanoma) 44.2 µM | GI50 (COLO 205 colon) 3.09 µM | GI50 (SF-539 CNS) 4.27 µM | GI50 (U251 CNS) 4.83 µM | GI50 (NCI-H226 lung) 4.13 µM | GI50 (A498 renal) 1.01 µM | GI50 (OVCAR-5 ovarian) 25.4 µM | GI50 (OVCAR-4 ovarian) 7.26 µM | GI50 (786-0 renal) 3.91 µM | GI50 (TK-10 renal) 1.52 µM | GI50 (K-562 leukemia) 5.14 µM | GI50 (NCI-H460 lung) 4.45 µM | GI50 (MDA-MB-231 breast) 15 µM | GI50 (SK-MEL-5 melanoma) 18.8 µM | GI50 (LOX IMVI melanoma) 4.35 µM | GI50 (CCRF-CEM leukemia) 4.03 µM | GI50 (SK-OV-3 ovarian) 3.69 µM | GI50 (SN12C renal) 4.23 µM | GI50 (NCI/ADR-RES ovarian) 18.2 µM | GI50 (SNB-75 CNS) 1.55 µM | GI50 (HS 578T breast) 1.44 µM | GI50 (MOLT-4 leukemia) 15 µM | GI50 (RXF 393 renal) 1.35 µM | GI50 (M14 melanoma) 7.14 µM | GI50 (UACC-257 melanoma) 87.7 µM | GI50 (OVCAR-8 ovarian) 21.1 µM | GI50 (SF-268 CNS) 6.21 µM | GI50 (HCT-116 colon) 3.64 µM | GI50 (SNB-19 CNS) 26 µM | GI50 (A549 NSCLC) 5.2 µM | GI50 (ACHN renal) 2.03 µM | GI50 (T-47D breast) 9.63 µM | GI50 (SF-295 CNS) 6.19 µM | GI50 (SK-MEL-28 melanoma) 20.4 µM | GI50 (RPMI-8226 leukemia) 22.5 µM | GI50 (HT29 colon) 5.09 µM | GI50 (MDA-MB-435) 4.03 µM | GI50 (IGROV1 ovarian) 2.12 µM | GI50 (HOP-92 NSCLC) 4.22 µM | GI50 (HL-60(TB) leukemia) 5.5 µM | GI50 (UO-31 renal) 1.38 µM | GI50 (SR leukemia) 3.65 µM | GI50 (MCF7 breast) 9.7 µM | GI50 (HOP-62 NSCLC) 6.22 µM | GI50 (HCC-2998 colon) 24.8 µM | GI50 (NCI-H522 lung) 17.4 µM | GI50 (HCT-15 colon) 3.54 µM | GI50 (CAKI-1 renal) 1.4 µM | GI50 (SW-620 colon) 4.81 µM
45.2 µM: TGI (NCI-H226 lung)
12.3 µM: TGI (CAKI-1 renal)
40.9 µM: TGI (SK-OV-3 ovarian)
37.3 µM: TGI (TK-10 renal)
7.49 µM: TGI (SNB-75 CNS)
27 µM: TGI (HCT-116 colon)
62.8 µM: TGI (HOP-92 NSCLC)
4.78 µM: TGI (HS 578T breast)
52.8 µM: TGI (HT29 colon)
74.4 µM: TGI (SF-295 CNS)
5.33 µM: TGI (A498 renal)
46.7 µM: TGI (BT-549 breast)
35.2 µM: TGI (SF-268 CNS)
11.2 µM: TGI (UO-31 renal)
